Laboratory results: DBAASP
≈ marks a conversion by molar mass, not a printed value. Values belong to the compound of their own block, whether it stands above or below them.

Key:
Experiment in all cases: ≥ marks a high value that may be exact or a test limit, other limits are often not marked, values filed in µg/mL are converted to µM
[1] = test system: Micrococcus luteus ATCC 4698
[2] = test system: Escherichia coli DH5alpha
[3] = test system: Staphylococcus epidermidis ATCC 12228
[4] = test system: Staphylococcus aureus ATCC 6538
[5] = test system: Staphylococcus aureus CIP 677
[6] = test system: Lactococcus lactis subsp. cremoris I116
Leuconostoc lactis = test system: Leuconostoc lactis
Escherichia coli K-12 = test system: Escherichia coli K-12
Streptococcus uberis = test system: Streptococcus uberis
[7] = test system: Staphylococcus aureus USA 300
[8] = test system: Micrococcus luteus ATCC 10240
Escherichia coli BL21AI = test system: Escherichia coli BL21AI
[9] = test system: Salmonella enterica subsp. enterica serovar Typhimurium ATCC 700408
[10] = test system: Klebsiella pneumoniae K6 ATCC 700603
Escherichia coli D31 = test system: Escherichia coli D31
[11] = test system: Escherichia coli ATCC 25922
[12] = test system: Staphylococcus aureus ATCC 29213
Salmonella sp. = test system: Salmonella sp.
[13] = test system: Staphylococcus aureus ATCC 43300
Yersinia enterocolitica = test system: Yersinia enterocolitica
Escherichia coli = test system: Escherichia coli
[14] = test system: Pseudomonas aeruginosa ATCC 27853
[15] = test system: Salmonella enterica subsp. enterica serovar Enteritidis
[16] = test system: Escherichia coli KCTC 1682
[17] = test system: Salmonella typhimurium KCTC 1926
[18] = test system: Candida albicans KCTC 7965
[19] = test system: Staphylococcus epidermidis KCTC 1917
[20] = test system: Pseudomonas aeruginosa KCTC 1637
[21] = test system: Staphylococcus aureus KCTC 1621
[22] = test system: Bacillus subtilis KCTC 3068
[23] = test system: Klebsiella pneumoniae ATCC BAA-1705
Escherichia coli W3110 = test system: Escherichia coli W3110
[24] = test system: Candida albicans FRR 5580
[25] = test system: Pseudomonas aeruginosa ATCC 9027
[26] = test system: Staphylococcus aureus ATCC 25923
Staphylococcus aureus = test system: Staphylococcus aureus

MIC [1]: 4.27 µM (≈ 6 µg/mL) | MIC [2]: 21.3 µM (≈ 30 µg/mL) | MIC [3]: 12.8 µM (≈ 18 µg/mL) | MIC [4]: 7.82 µM (≈ 11 µg/mL)
SMILES: CC(C)C[C@H](NC(=O)[C@H](CC(C)C)NC(=O)[C@H](CCCCN)NC(=O)[C@H](CO)NC(=O)[C@H](CC(C)C)NC(=O)[C@H](C)NC(=O)[C@H](CCCCN)NC(=O)[C@H](Cc1ccccc1)NC(=O)[C@@H](NC(=O)[C@H](C)NC(=O)CNC(=O)[C@H](CC(C)C)NC(=O)[C@@H](N)Cc1ccccc1)C(C)C)C(=O)O [FLGAVFKALSKLL]

MIC [1]: 2.68 µM (≈ 4 µg/mL) | MIC [2]: 16.8 µM (≈ 25 µg/mL) | MIC [3]: 6.7 µM (≈ 10 µg/mL) | MIC [4]: 4.02 µM (≈ 6 µg/mL)
SMILES: CC(C)C[C@H](NC(=O)[C@H](CC(C)C)NC(=O)[C@H](CCCCN)NC(=O)[C@H](CO)NC(=O)[C@H](CC(C)C)NC(=O)[C@H](C)NC(=O)[C@H](CCCCN)NC(=O)[C@H](Cc1ccccc1)NC(=O)[C@H](CC(C)C)NC(=O)[C@H](C)NC(=O)[C@H](CCCCN)NC(=O)[C@H](CC(C)C)NC(=O)[C@@H](N)Cc1ccccc1)C(=O)O [FLKALFKALSKLL]

MIC [5]: 8 µM (≈ 21.9 µg/mL) | MIC [6]: 4 µM (≈ 10.9 µg/mL)
SMILES: CC[C@H](C)[C@H](NC(=O)CN)C(=O)N[C@@H](Cc1c[nH]c2ccccc12)C(=O)NCC(=O)N[C@H](C(=O)N[C@@H](CC(C)C)C(=O)N[C@@H](C)C(=O)N[C@@H](CCCCN)C(=O)N[C@H](C(=O)NCC(=O)N[C@H](C(=O)N[C@@H](CCCCN)C(=O)N[C@@H](C)C(=O)N[C@H](C(=O)N1CCC[C@H]1C(=O)N[C@@H](CCCN=C(N)N)C(=O)N[C@H](C(=O)N[C@H](C(=O)N[C@@H](CO)C(=O)N[C@@H](CCSC)C(=O)N[C@@H](CC(C)C)C(=O)N[C@@H](CCCCN)C(=O)N[C@@H](CCCCN)C(=O)N[C@@H](CCCCN)C(=O)N[C@@H](CCC(N)=O)C(=O)O)[C@@H](C)CC)C(C)C)C(C)C)[C@@H](C)CC)[C@@H](C)CC)[C@@H](C)O [GIWGTLAKIGIKAVPRVISMLKKKQ]

MIC (Leuconostoc lactis): 25 µM (≈ 50.2 µg/mL) | MIC (Escherichia coli K-12): ≥ 100 µM | MIC (Streptococcus uberis): ≥ 50 µM | MIC [7]: ≥ 100 µM
SMILES: CC(C)C[C@H](NC(=O)CN)C(=O)N[C@@H](C)C(=O)N[C@@H](CC(=O)O)C(=O)N[C@@H](Cc1ccccc1)C(=O)N[C@@H](CC(C)C)C(=O)N[C@@H](CC(N)=O)C(=O)N[C@@H](CCCCN)C(=O)N[C@@H](C)C(=O)N[C@H](C(=O)NCC(=O)N[C@@H](CCCCN)C(=O)N[C@H](C(=O)N[C@H](C(=O)N[C@@H](CC(=O)O)C(=O)N[C@@H](Cc1ccccc1)C(=O)N[C@H](C(=O)N[C@@H](CCCCN)C(=O)N[C@@H](CO)C(N)=O)C(C)C)C(C)C)C(C)C)C(C)C [GLADFLNKAVGKVVDFVKS]

MIC [8]: ≥ 60 µM | MIC (Escherichia coli BL21AI): ≥ 60 µM
SMILES: CC[C@H](C)[C@H](NC(=O)[C@H](Cc1ccc(O)cc1)NC(=O)[C@@H](NC(=O)[C@@H]1CCCN1C(=O)[C@H](CCCN=C(N)N)NC(=O)[C@H](CC(N)=O)NC(=O)[C@H](CC(N)=O)NC(=O)CN)C(C)C)C(=O)N[C@@H](C)C(=O)N[C@@H](CCC(N)=O)C(=O)N1CCC[C@H]1C(=O)N[C@@H](CCCN=C(N)N)C(=O)N1CCC[C@H]1C(=O)N1CCC[C@H]1C(=O)N[C@@H](Cc1cnc[nH]1)C(=O)N1CCC[C@H]1C(=O)N[C@@H](CCCN=C(N)N)C(=O)N[C@@H](CC(C)C)C(N)=O [GNNRPVYIAQPRPPHPRL]

MIC [9]: 1.87 µM (≈ 4 µg/mL) | MIC [10]: 29.9 µM (≈ 64 µg/mL) | MIC (Escherichia coli D31): ≥ 59.7 µM
SMILES: CC[C@H](C)[C@H](NC(=O)[C@H](Cc1ccc(O)cc1)NC(=O)[C@@H](NC(=O)[C@@H]1CCCN1C(=O)[C@H](CCCN=C(N)N)NC(=O)[C@H](CC(N)=O)NC(=O)[C@H](CC(N)=O)NC(=O)CN)C(C)C)C(=O)N1CCC[C@H]1C(=O)N[C@@H](CCC(N)=O)C(=O)N1CCC[C@H]1C(=O)N[C@@H](CCCN=C(N)N)C(=O)N1CCC[C@H]1C(=O)N1CCC[C@H]1C(=O)N[C@@H](Cc1cnc[nH]1)C(=O)N1CCC[C@H]1C(=O)N[C@@H](CCCN=C(N)N)C(=O)N[C@@H](Cc1ccccc1)C(N)=O [GNNRPVYIPQPRPPHPRF]

MIC [11]: > 50 µM | MIC [12]: > 50 µM | MIC (Salmonella sp.): ≥ 50 µM | MIC [13]: > 50 µM | MIC (Yersinia enterocolitica): ≥ 50 µM | MIC (Escherichia coli): > 50 µM | MIC [14]: > 50 µM | MIC [15]: ≥ 50 µM
SMILES: NCCCC[C@H](NC(=O)[C@H](CCCCN)NC(=O)[C@H](Cc1ccccc1)NC(=O)[C@H](CCCCN)NC(=O)[C@H](CCCN=C(N)N)NC(=O)[C@H](CCCN=C(N)N)NC(=O)[C@H](Cc1ccccc1)NC(=O)[C@H](CCCCN)NC(=O)[C@@H](N)CCCN=C(N)N)C(N)=O [RKFRRKFKK]

MIC [16]: 17.6 µM (≈ 32 µg/mL) | MIC [17]: 17.6 µM (≈ 32 µg/mL) | MIC [18]: 17.6 µM (≈ 32 µg/mL) | MIC [19]: 4.39 µM (≈ 8 µg/mL) | MIC [20]: ≥ 35.1 µM | MIC [21]: 8.78 µM (≈ 16 µg/mL) | MIC [22]: 8.78 µM (≈ 16 µg/mL)
SMILES: CC(C)C[C@H](NC(=O)[C@H](Cc1ccccc1)NC(=O)CNC(=O)[C@H](Cc1c[nH]c2ccccc12)NC(=O)[C@H](Cc1c[nH]c2ccccc12)NC(=O)[C@H](Cc1c[nH]c2ccccc12)NC(=O)CNC(=O)[C@H](Cc1ccccc1)NC(=O)[C@H](CCCN=C(N)N)NC(=O)[C@H](CCCN=C(N)N)NC(=O)[C@@H](N)C(C)C)C(=O)N[C@@H](CCCN=C(N)N)C(=O)N[C@@H](CCCN=C(N)N)C(=O)O [VRRFGWWWGFLRR]

MIC [23]: ≥ 64 µM | MIC (Escherichia coli W3110): 1 µM (≈ 2.26 µg/mL)
SMILES: CC[C@H](C)[C@H](NC(=O)[C@H](CCCCN)NC(=O)[C@H](CCCCN)NC(=O)[C@H](Cc1ccc(O)cc1)NC(=O)[C@H](CCCCN)NC(=O)[C@H](CC(C)C)NC(=O)[C@H](CC(C)C)NC(=O)[C@H](CCCCN)NC(=O)[C@H](CC(C)C)NC(=O)CNC(=O)[C@H](Cc1c[nH]c2ccccc12)NC(=O)[C@H](CS)NC(=O)[C@H](C)NC(=O)[C@H](Cc1c[nH]c2ccccc12)NC(=O)[C@H](CCCN=C(N)N)NC(=O)[C@@H](N)Cc1c[nH]c2ccccc12)C(=O)N[C@@H](Cc1ccc(O)cc1)C(=O)O [WRWACWGLKLLKYKKIY]

MIC [11]: 2.94 µM (≈ 4 µg/mL) | MIC [24]: ≥ 47 µM | MIC [25]: 23.5 µM (≈ 32 µg/mL) | MIC [26]: 5.88 µM (≈ 7.99 µg/mL)
SMILES: NCCCC[C@H](NC(=O)[C@H](Cc1c[nH]c2ccccc12)NC(=O)[C@H](Cc1c[nH]c2ccccc12)NC(=O)[C@H](CCCCN)NC(=O)[C@H](Cc1c[nH]c2ccccc12)NC(=O)[C@H](Cc1c[nH]c2ccccc12)NC(=O)[C@H](CCCN=C(N)N)NC(=O)[C@@H](N)Cc1c[nH]c2ccccc12)C(N)=O [WRWWKWWK]

MIC [11]: 3.24 µM (≈ 4 µg/mL) | MIC [24]: ≥ 51.9 µM | MIC [25]: 25.9 µM (≈ 32 µg/mL) | MIC [26]: 6.49 µM (≈ 7.99 µg/mL) | MIC (Staphylococcus aureus): 6.49 µM (≈ 7.99 µg/mL)
SMILES: NCCCC[C@H](NC(=O)[C@H](Cc1c[nH]c2ccccc12)NC(=O)[C@H](Cc1c[nH]c2ccccc12)NC(=O)[C@H](CCCN=C(N)N)NC(=O)[C@@H](N)Cc1c[nH]c2ccccc12)C(=O)N[C@@H](Cc1c[nH]c2ccccc12)C(=O)N[C@@H](Cc1c[nH]c2ccccc12)C(N)=O [WRWWKWW]
